# Where two headings read alike, the source gives them in different places.
# What was measured:
# [1] = test system: Pseudomonas aeruginosa (12 strains); assay: MIC range, broader panel of Quotient Bioresearch strains (Table 4); assay type: cell-based; conditions: for MIC50: read-out: MIC Range Median, Pseudomonas aeruginosa (12 strains)
# [2] = test system: Haemophilus influenza (5 strains); assay: as above; assay type: cell-based, Haemophilus influenzae; conditions: for MIC50: 16 h, Median of the strain panel
# [3] = test system: Enterococcus faecium (3 strains); assay: MIC range, broader panel of Quotient Bioresearch strains (Table 3); conditions: for MIC50: read-out: MIC Range Median, Enterococcus faecium (3 strains)
# [4] = test system: Klebsiella pneumonia (4 strains); assay: MIC range, broader panel of Quotient Bioresearch strains (Table 4); assay type: cell-based; conditions: Klebsiella pneumoniae; for MIC50: read-out: MIC Range Median, Klebsiella pneumonia (4 strains)
# [5] = test system: Group C Streptococcus (4 strains); assay: MIC range, broader panel of Quotient Bioresearch strains (Table 3); conditions: for MIC50: read-out: MIC Range Median, Group C Streptococcus (4 strains)
# [6] = test system: Staphylococcus aureus (16 strains); assay: as above; conditions: for MIC50: read-out: MIC Range Median, Staphylococcus aureus (16 strains)
# [7] = test system: Escherichia coli (6 strains); assay: MIC range, broader panel of Quotient Bioresearch strains (Table 4); assay type: cell-based; conditions: for MIC50: read-out: MIC Range Median, Escherichia coli (6 strains)
# [8] = test system: Burkholderia cepacia (5 strains); assay: as above; assay type: cell-based; conditions: for MIC50: read-out: MIC Range Median, Burkholderia cepacia (5 strains)
# [9] = test system: Streptococcus pyogenes (4 strains); assay: MIC range, broader panel of Quotient Bioresearch strains (Table 3); conditions: for MIC50: read-out: MIC Range Median, Streptococcus pyogenes (4 strains)
# [10] = test system: Acinetobacter baumannii, quinolone-resistant strains (Quotient Bioresearch catalogue); assay: MIC against pathogens resistant against quinolones (Table 5); assay type: cell-based; conditions: Acinetobacter baumannii, GN54
# [11] = target: bacterial gyrase (Escherichia coli, UniProt P0AES4+P0AES6); assay: Inhibition of topoisomerases activity in vitro, Topogen protocol TG1003 (Table 7); assay type: biochemical
# [12] = target: bacterial topoisomerase IV (Escherichia coli, UniProt P0AFI2+P20083); assay: Inhibition of topoisomerases activity in vitro, Topogen protocol TG1007 (Table 7); assay type: biochemical
# [13] = test system: Enterococcus faecalis (5 strains); assay: MIC range, broader panel of Quotient Bioresearch strains (Table 3); conditions: for MIC50: read-out: MIC Range Median, Enterococcus faecalis (5 strains)
# [14] = test system: Streptococcus pneumonia (5 strains); assay: as above; conditions: Streptococcus pneumoniae; for MIC50: read-out: MIC Range Median, Streptococcus pneumonia (5 strains)
# [15] = test system: Acinetobacter baumannii (12 strains); assay: MIC range, broader panel of Quotient Bioresearch strains (Table 4); assay type: cell-based; conditions: for MIC50: read-out: MIC Range Median, Acinetobacter baumannii (12 strains)
# [16] = physchem; assay type: physicochemical; conditions: thermodynamic from solid
# Procedure: The solutions were incubated at room temperature for 24 hours before quantification by HPLC detection. Aqueous solubility was evaluated in simulated gastric fluid (SGF), simulated intestinal fluid (SIF) and phosphate buffer saline (PBS) pH 7.4. Aqueous solubility is expressed in Table 11 as mean solubility in μM.
# [17] = Metabolic stability in liver microsomes +/- S9 fraction (Table 8); assay type: in vitro ADME; conditions: 1 μM
# Procedure: Metabolic stability of a select number of examples was tested in liver microsomes+/−addition of S9 fraction as described by Kuhnz, W. and Gieschen, H. (1998), Drug Metab. Dispos., 1120-1127. Test concentration was 1 μM and HPLC/MS-MS was used for detection.
# [18] = read-out: MIC Range High, Pseudomonas aeruginosa (12 strains)
# [19] = read-out: MIC Range Low, Pseudomonas aeruginosa (12 strains)
# [20] = High of the strain panel, read-out: MIC Range High, Haemophilus influenza (5 strains)
# [21] = Low of the strain panel, read-out: MIC Range Low, Haemophilus influenza (5 strains)
# [22] = read-out: MIC Range Low, Enterococcus faecium (3 strains)
# [23] = read-out: MIC Range High, Klebsiella pneumonia (4 strains)
# [24] = read-out: MIC Range Low, Klebsiella pneumonia (4 strains)
# [25] = read-out: MIC Range High, Group C Streptococcus (4 strains)
# [26] = read-out: MIC Range Low, Group C Streptococcus (4 strains)
# [27] = read-out: MIC Range High, Staphylococcus aureus (16 strains)
# [28] = read-out: MIC Range Low, Staphylococcus aureus (16 strains)
# [29] = read-out: MIC Range High, Escherichia coli (6 strains)
# [30] = read-out: MIC Range Low, Escherichia coli (6 strains)
# [31] = read-out: MIC Range High, Burkholderia cepacia (5 strains)
# [32] = read-out: MIC Range Low, Burkholderia cepacia (5 strains)
# [33] = read-out: MIC Range High, Streptococcus pyogenes (4 strains)
# [34] = read-out: MIC Range Low, Streptococcus pyogenes (4 strains)
# [35] = read-out: MIC Range High, Enterococcus faecalis (5 strains)
# [36] = read-out: MIC Range Low, Enterococcus faecalis (5 strains)
# [37] = read-out: MIC Range Low, Streptococcus pneumonia (5 strains)
# [38] = read-out: MIC Range High, Acinetobacter baumannii (12 strains)
# [39] = read-out: MIC Range Low, Acinetobacter baumannii (12 strains)
# [40] = read-out: MIC Range High, Enterococcus faecium (3 strains)
# [41] = read-out: MIC Range High, Streptococcus pneumonia (5 strains)
# Sequence of bacterial topoisomerase IV (P20083 whole entry): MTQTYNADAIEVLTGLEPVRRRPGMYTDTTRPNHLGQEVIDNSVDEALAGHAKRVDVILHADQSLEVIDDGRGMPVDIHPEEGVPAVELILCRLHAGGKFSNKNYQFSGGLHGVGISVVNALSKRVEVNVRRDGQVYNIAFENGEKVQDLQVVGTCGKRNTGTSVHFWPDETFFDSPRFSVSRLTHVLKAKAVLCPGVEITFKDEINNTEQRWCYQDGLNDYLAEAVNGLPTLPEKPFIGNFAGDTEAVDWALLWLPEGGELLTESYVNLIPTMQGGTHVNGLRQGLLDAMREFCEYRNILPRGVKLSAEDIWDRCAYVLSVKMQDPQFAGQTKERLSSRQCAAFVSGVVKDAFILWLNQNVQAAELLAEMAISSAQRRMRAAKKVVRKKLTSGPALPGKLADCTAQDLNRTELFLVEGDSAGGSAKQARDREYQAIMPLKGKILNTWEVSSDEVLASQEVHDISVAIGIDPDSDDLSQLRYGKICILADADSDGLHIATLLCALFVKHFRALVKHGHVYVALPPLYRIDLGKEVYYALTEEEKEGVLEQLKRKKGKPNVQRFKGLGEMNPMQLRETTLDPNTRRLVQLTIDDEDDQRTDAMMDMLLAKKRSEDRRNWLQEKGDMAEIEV
# Sequence of bacterial topoisomerase IV (P0AFI2 whole entry): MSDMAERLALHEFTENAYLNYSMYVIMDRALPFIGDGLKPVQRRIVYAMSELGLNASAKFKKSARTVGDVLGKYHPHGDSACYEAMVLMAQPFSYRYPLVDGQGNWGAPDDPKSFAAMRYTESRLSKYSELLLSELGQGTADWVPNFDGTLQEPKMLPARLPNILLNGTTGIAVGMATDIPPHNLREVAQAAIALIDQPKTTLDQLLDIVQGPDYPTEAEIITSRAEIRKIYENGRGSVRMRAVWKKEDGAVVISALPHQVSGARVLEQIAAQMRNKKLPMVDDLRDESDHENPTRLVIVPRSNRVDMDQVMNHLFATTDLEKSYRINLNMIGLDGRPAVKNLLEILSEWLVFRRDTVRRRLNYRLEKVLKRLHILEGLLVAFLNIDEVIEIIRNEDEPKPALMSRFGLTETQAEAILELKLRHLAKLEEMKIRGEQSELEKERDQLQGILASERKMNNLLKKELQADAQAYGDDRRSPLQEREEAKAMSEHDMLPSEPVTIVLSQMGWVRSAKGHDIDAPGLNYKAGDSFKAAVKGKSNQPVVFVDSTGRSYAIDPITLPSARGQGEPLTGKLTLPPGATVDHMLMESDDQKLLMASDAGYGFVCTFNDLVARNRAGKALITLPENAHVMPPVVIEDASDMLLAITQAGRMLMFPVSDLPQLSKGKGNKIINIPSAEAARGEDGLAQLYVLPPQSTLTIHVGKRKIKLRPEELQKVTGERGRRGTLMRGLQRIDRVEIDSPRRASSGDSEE
# Sequence of bacterial gyrase (P0AES4 whole entry, one chain of several): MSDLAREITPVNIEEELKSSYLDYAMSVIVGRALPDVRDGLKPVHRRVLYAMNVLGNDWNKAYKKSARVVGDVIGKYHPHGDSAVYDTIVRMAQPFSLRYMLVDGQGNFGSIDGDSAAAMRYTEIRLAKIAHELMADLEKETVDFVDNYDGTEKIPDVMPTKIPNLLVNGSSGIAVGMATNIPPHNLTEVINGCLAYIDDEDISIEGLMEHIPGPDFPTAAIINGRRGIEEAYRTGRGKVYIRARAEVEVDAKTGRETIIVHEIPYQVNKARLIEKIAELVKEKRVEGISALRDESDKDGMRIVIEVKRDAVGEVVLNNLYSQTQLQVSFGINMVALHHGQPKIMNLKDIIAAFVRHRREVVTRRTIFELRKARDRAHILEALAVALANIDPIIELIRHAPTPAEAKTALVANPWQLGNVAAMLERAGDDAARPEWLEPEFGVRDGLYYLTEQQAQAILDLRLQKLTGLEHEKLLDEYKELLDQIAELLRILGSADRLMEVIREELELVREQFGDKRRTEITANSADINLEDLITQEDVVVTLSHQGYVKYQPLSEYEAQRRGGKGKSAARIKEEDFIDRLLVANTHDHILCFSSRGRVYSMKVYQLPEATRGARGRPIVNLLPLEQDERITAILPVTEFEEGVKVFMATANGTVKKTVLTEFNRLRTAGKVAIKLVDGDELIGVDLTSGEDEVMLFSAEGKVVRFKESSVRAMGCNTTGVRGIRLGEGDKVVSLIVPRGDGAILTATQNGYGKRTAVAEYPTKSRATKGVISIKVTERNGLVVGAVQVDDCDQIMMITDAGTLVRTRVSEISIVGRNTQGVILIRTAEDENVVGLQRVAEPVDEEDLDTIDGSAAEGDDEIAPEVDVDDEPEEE
compound,measurement,setting,value
"Cc1c(-c2ccc(N)c(F)c2)ccn2c(=O)c(C(=O)[O-])cc(C3CC3)c12.[K+] [Example 2 K salt, potassium 8-(4-amino-3-fluoro-phenyl)-1-cyclopropyl-9-methyl-4-oxo-4H-quinolizine-3-carboxylate]",MIC,[1]; [18],16 µg/mL
same,MIC,[1]; [19],0.5 µg/mL
same,MIC50,[1],4 µg/mL
same,MIC50,[2],≤ 0.015 µg/mL
same,MIC,[2]; [20],≤ 0.015 µg/mL
same,MIC,[2]; [21],≤ 0.015 µg/mL
same,MIC,[3]; [22],0.12 µg/mL
same,MIC50,[3],0.5 µg/mL
same,MIC,[4]; [23],16 µg/mL
same,MIC,[4]; [24],0.12 µg/mL
same,MIC50,[4],10 µg/mL
same,MIC,[5]; [25],0.12 µg/mL
same,MIC,[5]; [26],0.03 µg/mL
same,MIC50,[5],0.06 µg/mL
same,MIC,[6]; [27],0.25 µg/mL
same,MIC,[6]; [28],≤ 0.015 µg/mL
same,MIC50,[6],0.06 µg/mL
same,MIC,[7]; [29],16 µg/mL
same,MIC,[7]; [30],≤ 0.015 µg/mL
same,MIC50,[7],16 µg/mL
same,MIC,[8]; [31],0.25 µg/mL
same,MIC,[8]; [32],0.06 µg/mL
same,MIC50,[8],0.12 µg/mL
same,MIC,[9]; [33],0.12 µg/mL
same,MIC,[9]; [34],0.06 µg/mL
same,MIC50,[9],0.09 µg/mL
same,MIC,[10],2 µg/mL
same,IC50,[11],≤ 1420 nM
same,IC50,[12],4.43 µM
same,MIC,[13]; [35],1 µg/mL
same,MIC,[13]; [36],≤ 0.015 µg/mL
same,MIC50,[13],0.03 µg/mL
same,MIC,[14]; [37],0.06 µg/mL
same,MIC50,[14],0.12 µg/mL
same,MIC,[15]; [38],16 µg/mL
same,MIC,[15]; [39],0.06 µg/mL
same,MIC50,[15],6 µg/mL
same,solubility at 24 h,[16]; fassgf or other biorelevant,171 µM
same,solubility at 24 h,"[16]; pH 7.4, aqueous buffer",28 µM
same,solubility at 24 h,[16]; simulated gastric fluid,21 µM
same,Mean Parent Remaining,"[17]; Liver microsomes + S9, human",95%
same,Mean Parent Remaining,"[17]; Liver microsomes + S9, mouse",58%
same,Mean Parent Remaining,"[17]; Liver microsomes, human",90%
same,Mean Parent Remaining,"[17]; Liver microsomes, mouse",53%
"Cc1c(-c2cc(F)c(N)c(F)c2)ccn2c(=O)c(C(=O)[O-])cc(C3CC3)c12.[K+] [Example 39 K salt, potassium 8-(4-amino-3,5-difluoro-phenyl)-1-cyclopropyl-9-methyl-4-oxo-4H-quinolizine-3-carboxylate]",MIC,[1]; [18],16 µg/mL
same,MIC,[1]; [19],0.5 µg/mL
same,MIC50,[1],4 µg/mL
same,MIC50,[2],≤ 0.015 µg/mL
same,MIC,[2]; [20],≤ 0.015 µg/mL
same,MIC,[2]; [21],≤ 0.015 µg/mL
same,MIC,[3]; [40],1 µg/mL
same,MIC,[3]; [22],0.12 µg/mL
same,MIC50,[3],0.5 µg/mL
same,MIC,[4]; [23],32 µg/mL
same,MIC,[4]; [24],0.12 µg/mL
same,MIC50,[4],9 µg/mL
same,MIC,[5]; [25],0.12 µg/mL
same,MIC,[5]; [26],0.03 µg/mL
same,MIC50,[5],0.09 µg/mL
same,MIC,[6]; [27],0.12 µg/mL
same,MIC,[6]; [28],≤ 0.015 µg/mL
same,MIC50,[6],0.06 µg/mL
same,MIC,[7]; [29],16 µg/mL
same,MIC,[7]; [30],≤ 0.015 µg/mL
same,MIC50,[7],12 µg/mL
same,MIC,[8]; [31],0.5 µg/mL
same,MIC,[8]; [32],0.06 µg/mL
same,MIC50,[8],0.25 µg/mL
same,MIC,[9]; [33],0.25 µg/mL
same,MIC,[9]; [34],0.06 µg/mL
same,MIC50,[9],0.12 µg/mL
same,MIC,[13]; [35],0.5 µg/mL
same,MIC,[13]; [36],≤ 0.015 µg/mL
same,MIC50,[13],0.03 µg/mL
same,MIC,[14]; [41],0.25 µg/mL
same,MIC,[14]; [37],0.12 µg/mL
same,MIC50,[14],0.12 µg/mL
same,MIC,[15]; [38],16 µg/mL
same,MIC,[15]; [39],0.06 µg/mL
same,MIC50,[15],4 µg/mL
"Cc1c(C2=CCNCC2)ccn2c(=O)c(C(=O)O)cc(C3CC3)c12 [Example 42, 1-cyclopropyl-9-methyl-4-oxo-8-(1,2,3,6-tetrahydropyridin-4-yl)-4H-quinolizine-3-carboxylic acid]",MIC,"[1]; High of the strain panel, read-out: MIC Range High, Pseudomonas aeruginosa (12 strains)",> 32 µg/mL
same,MIC,"[1]; Low of the strain panel, read-out: MIC Range Low, Pseudomonas aeruginosa (12 strains)",1 µg/mL
same,MIC50,[1]; Median of the strain panel,32 µg/mL
same,MIC50,[2],0.06 µg/mL
same,MIC,[2]; [20],0.06 µg/mL
same,MIC,[2]; [21],0.03 µg/mL
same,MIC,[3]; [40],> 32 µg/mL
same,MIC,[3]; [22],16 µg/mL
same,MIC50,[3],> 32 µg/mL
same,MIC,"[4]; High of the strain panel, read-out: MIC Range High, Klebsiella pneumonia (4 strains)",> 32 µg/mL
same,MIC,"[4]; Low of the strain panel, read-out: MIC Range Low, Klebsiella pneumonia (4 strains)",0.12 µg/mL
same,MIC50,[4]; Median of the strain panel,8 µg/mL
same,MIC,[5]; [25],4 µg/mL
same,MIC,[5]; [26],2 µg/mL
same,MIC50,[5],2 µg/mL
same,MIC,[6]; [27],32 µg/mL
same,MIC,[6]; [28],0.5 µg/mL
same,MIC50,[6],16.2 µg/mL
same,MIC,"[7]; High of the strain panel, read-out: MIC Range High, Escherichia coli (6 strains)",> 32 µg/mL
same,MIC,"[7]; Low of the strain panel, read-out: MIC Range Low, Escherichia coli (6 strains)",0.06 µg/mL
same,MIC50,[7]; Median of the strain panel,32 µg/mL
same,MIC,[8]; [31],2 µg/mL
same,MIC,[8]; [32],2 µg/mL
same,MIC50,[8],2 µg/mL
same,MIC,[9]; [33],8 µg/mL
same,MIC,[9]; [34],2 µg/mL
same,MIC50,[9],3 µg/mL
same,MIC,[13]; [35],32 µg/mL
same,MIC,[13]; [36],4 µg/mL
same,MIC50,[13],4 µg/mL
same,MIC,[14]; [41],8 µg/mL
same,MIC,[14]; [37],4 µg/mL
same,MIC50,[14],4 µg/mL
same,MIC,"[15]; High of the strain panel, read-out: MIC Range High, Acinetobacter baumannii (12 strains)",> 32 µg/mL
same,MIC,"[15]; Low of the strain panel, read-out: MIC Range Low, Acinetobacter baumannii (12 strains)",0.25 µg/mL
same,MIC50,[15]; Median of the strain panel,> 32 µg/mL

# Reference: patent US8962842B2, “2-pyridone antimicrobial compositions” (priority 2010, dated 2015)
